“Also recorded” adds a separate entry of the source.
Tests used:
[1] = test system: Escherichia coli strain K-12 MG1655; test: Time-kill experiments (antibiotic lethality with biochemical supplementation); settings: for ciprofloxacin (CIP) lethality / gentamicin (GENT) lethality / ampicillin (AMP) lethality: time-kill, with vs without the added substance; for ciprofloxacin (CIP) lethality: 16 ng/mL CIP; for gentamicin (GENT) lethality: 48 ng/mL GENT (minimal medium); for ampicillin (AMP) lethality: 4 μg/mL AMP; for antibiotic lethality: supplementation in wildtype cells, tested antibiotics AMP, CIP and GENT
[2] = test system: E. coli cells; test: Oxygen consumption rate quantification (Seahorse XFe96 Extracellular Flux Analyzer); format: cell-based, Escherichia coli; settings: for cellular oxygen consumption rate (OCR) following antibiotic treatment: antibiotic alone, in contrast to control conditions; for cellular OCR under antibiotic treatment: 1 mM adenine or uracil supplementation, AMP, CIP or GENT treatment
[3] = test system: E. coli cells; settings: E. coli cells treated with the antibiotic; cited from earlier work
[4] = test system: E. coli cells; test: Intracellular metabolite quantification by LC-MS/MS after adenine or uracil supplementation; format: cell-based, Escherichia coli
Protocol: Intracellular metabolites were quantified on an AB SCIEX Qtrap® 5500 mass spectrometer (AB SCIEX; Framingham, Mass.), as previously described (McCloskey et al., 2018), and processed using in house scripts. […] Samples were collected 1 hr after supplementation, and aliquots with biomass equivalents to 10 mL of cell culture at OD600=0.1 were subjected to metabolite extraction using a 40:40:20 mixture of acetonitrile, methanol and LC-MS grade water. Uniformly labeled ^13C-standards were generated by growing E. coli in uniformly labeled Glucose M9 minimal media in aerated shake flasks, as previously described (McCloskey et al., 2014). Calibration mixes of standards were split across several mixes, aliquoted, and lyophilized to dryness. All samples and calibrators were equally spiked with the same internal standards. Samples were quantified using […] mass spectrometry. Calibration curves were run before and after all biological and analytical replicates. Consistency of quantification between calibration curves was checked by running a Quality Control sample composed of all biological replicates. Values reported are derived from the average of the biological triplicates, analyzed in duplicate (n=6).
Metabolite concentrations were estimated from LC-MS/MS peak heights using previously generated calibration curves. […] Metabolites in blanks with a concentration greater than 80% of that found in the biological samples were similarly excluded. Missing values were imputed by bootstrapping using the R package Amelia II (v. 1.7.4, 1,000 imputations) (Honaker et al., 2011). Remaining missing values were approximated as ½ the lower limit of quantification for the metabolite normalized to the biomass of the sample. Intracellular metabolite concentrations were calculated based on an estimated cell density of 7·10^7 CFU/mL at OD600=0.1 (FIGS. 5A-5C) and an estimated cell volume of 1.3 fL for non-stressed exponential phase E. coli cells (Milo and Phillips, 2016).

[5] = test system: E. coli; test: Unstressed growth in MOPS minimal medium; settings: exogenous supplementation, no antibiotic
[6] = 1 mM supplementation, 1 hr, MOPS minimal medium

Sc1ncnc2nc[nH]c12 [6-mercaptopurine]
ciprofloxacin (CIP) lethality [1]: decreased | gentamicin (GENT) lethality [1]: increased | ampicillin (AMP) lethality [1]: decreased

CC1(C)S[C@@H]2[C@H](NC(=O)[C@H](N)c3ccccc3)C(=O)N2[C@H]1C(=O)O [AMP, ampicillin]
cellular oxygen consumption rate (OCR) following antibiotic treatment [2]: increased | intracellular purine nucleic acid bases (adenine, guanine) [3]: depleted | intracellular pyrimidine nucleic acid bases (cytosine, thymine, uracil) [3]: accumulate

O=C(O)c1cn(C2CC2)c2cc(N3CCNCC3)c(F)cc2c1=O [CIP, ciprofloxacin]
cellular oxygen consumption rate (OCR) following antibiotic treatment [2]: increased

CNC(C)C1CCC(N)C(OC2C(N)CC(N)C(OC3OCC(C)(O)C(NC)C3O)C2O)O1 (stereo not drawn) [GENT, gentamicin]
cellular oxygen consumption rate (OCR) following antibiotic treatment [2]: increased

Nc1ncnc2nc[nH]c12 [adenine]
cellular OCR under antibiotic treatment [2]: significantly repressed | NADH/NAD+ ratio [4, 6]: unchanged | NADPH/NADP+ ratio [4, 6]: modest decrease | adenylate energy charge [4, 6]: modest decrease | intracellular fumarate [4, 6]: decreased | intracellular succinate [4, 6]: increased | intracellular adenine nucleotides ([4]; exogenous adenine addition): accumulate | unstressed growth [5]: does not significantly alter | antibiotic lethality [1]: decreased | ciprofloxacin (CIP) lethality [1]: decreases | gentamicin (GENT) lethality [1]: decreases | ampicillin (AMP) lethality [1]: decreases

Nc1cc[nH]c(=O)n1 [cytosine]
antibiotic lethality [1]: potentiated; also recorded: potentiating effect

CCn1cc(C(=O)O)c(=O)c2cc(F)c(N3CCNCC3)cc21 [norfloxacin]
intracellular purine nucleic acid bases (adenine, guanine) [3]: depleted | intracellular pyrimidine nucleic acid bases (cytosine, thymine, uracil) [3]: accumulate

COc1cc(Cc2cnc(N)nc2N)cc(OC)c1OC [trimethoprim]
ciprofloxacin (CIP) lethality [1]: decreases | gentamicin (GENT) lethality [1]: increases | ampicillin (AMP) lethality [1]: decreases

O=c1cc[nH]c(=O)[nH]1 [uracil]
cellular OCR under antibiotic treatment [2]: enhanced | unstressed growth [5]: does not significantly alter | antibiotic lethality [1]: potentiated; also recorded: potentiating effect | ciprofloxacin (CIP) lethality [1]: increases | gentamicin (GENT) lethality [1]: increases | ampicillin (AMP) lethality [1]: increases

O=c1ccn([C@@H]2O[C@H](CO)[C@@H](O)[C@H]2O)c(=O)[nH]1 [uridine]
antibiotic lethality [1]: potentiating effect

Source: US20220296594A1, “POTENTIATORS OF ANTIMICROBIAL AND/OR ANTIVIRAL AGENTS” (MASSACHUSETTS INSTITUTE OF TECHNOLOGY, priority 2019, published 2022)
